Measured values from the supplement of paper PMC9938120.

Legend:
Assay in all cases: drug sensitivity score (DSS3, normalised partial AUC of % inhibition dose-response) (DSS (score)); higher = more sensitive (stronger inhibition of viability); extreme values may be limits of the assay
Conditions in all cases: 72 h; library: FO5A; assay format: 2D, 384-well, CellTiter-Glo
FMOC04 = system: FMOC04 (patient-derived high-grade serous ovarian cancer cells)
Summary of the method: (§1)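 Early-passage (under 10) patient-derived ovarian cancer cells were dispensed onto 384-well flat clear-bottom plates pre-plated with compounds at five concentrations spanning a 10,000-fold range, then incubated 72 h at 37 °C, 5% CO2. Viability was read with CellTiter-Glo, and the data were processed in Breeze. The drug sensitivity score is a partial area under the percent-inhibition dose-response curve divided by the log of the upper asymptote, with higher values meaning greater sensitivity.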

FMOC11 = system: FMOC11 (patient-derived high-grade serous ovarian cancer cells)
Summary of the method: as §1

FMOC28 = system: FMOC28 (patient-derived low-grade serous ovarian cancer cells)
Summary of the method: as §1

FMOC02_2 = system: FMOC02_2 (patient-derived low-grade serous ovarian cancer cells)
Summary of the method: as §1

FMOC09 = system: FMOC09 (patient-derived high-grade serous ovarian cancer cells)
Summary of the method: as §1

FMOC17 = system: FMOC17 (patient-derived low-grade serous ovarian cancer cells)
Summary of the method: as §1

FMOC02_3 = system: FMOC02_3 (patient-derived low-grade serous ovarian cancer cells)
Summary of the method: as §1

FMOC14 = system: FMOC14 (patient-derived high-grade serous ovarian cancer cells)
Summary of the method: as §1

FMOC03 = system: FMOC03 (patient-derived mucinous ovarian cancer cells)
Summary of the method: as §1

FMOC22 = system: FMOC22 (patient-derived mucinous ovarian cancer cells)
Summary of the method: as §1

FMOC02_1 = system: FMOC02_1 (patient-derived low-grade serous ovarian cancer cells)
Summary of the method: as §1

FMOC27 = system: FMOC27 (patient-derived low-grade serous ovarian cancer cells)
Summary of the method: as §1

FMOC06 = system: FMOC06 (patient-derived mucinous ovarian cancer cells)
Summary of the method: as §1

FMOC24 = system: FMOC24 (patient-derived high-grade serous ovarian cancer cells)
Summary of the method: as §1

FMOC25_2 = system: FMOC25_2 (patient-derived low-grade serous ovarian cancer cells)
Summary of the method: as §1

Row | SMILES | drug sensitivity score (FMOC04) | drug sensitivity score (FMOC11) | drug sensitivity score (FMOC28) | drug sensitivity score (FMOC02_2) | drug sensitivity score (FMOC09) | drug sensitivity score (FMOC17) | drug sensitivity score (FMOC02_3) | drug sensitivity score (FMOC14) | drug sensitivity score (FMOC03) | drug sensitivity score (FMOC22) | drug sensitivity score (FMOC02_1) | drug sensitivity score (FMOC27) | drug sensitivity score (FMOC06) | drug sensitivity score (FMOC24) | drug sensitivity score (FMOC25_2)
1 | CCN1CCN(c2ccc(Nc3cc(N(C)C(=O)Nc4c(Cl)c(OC)cc(OC)c4Cl)ncn3)cc2)CC1 [Infigratinib] | 0 | 0 | 0.5 | 0 | 0 | 0 | 0 | 0 | 0 | 0 | 0 | 0 | 0 | 0.05 | 0
2 | N#Cc1ccnc(N2C(=O)CC[C@H]2C(=O)N(c2cncc(F)c2)[C@H](C(=O)NC2CC(F)(F)C2)c2ccccc2Cl)c1 [Ivosidenib] | 0 | 0 | 2.6 | 0 | 0 | 0.3 | 0 | 0 | 0 | 0 | 0.2 | 0 | 0 | 0.2 | 0
3 | Nc1cc(COc2c(Cl)cc(C[C@H](N)C(=O)O)cc2Cl)c2oc(-c3ccccc3)nc2c1 [JPH203] | 0 | 0 | 0 | 0 | 0 | 0 | 0 | 0 | 0 | 0 | 0 | 0 | 0.4 | 0 | 0
4 | CC(C)NC(=O)COc1cccc(-c2nc(Nc3ccc4[nH]ncc4c3)c3ccccc3n2)c1 [KD025] | 3.55 | 1.6 | 2.4 | 1.6 | 0.2 | 4.5 | 6.2 | 2.7 | 0 | 0 | 5.4 | 0 | 1.1 | 10.4 | 4.4
5 | O=C(Nc1cnn2ccc(N3CCC[C@@H]3c3cc(F)ccc3F)nc12)N1CC[C@H](O)C1 [Larotrectinib] | 0 | 0 | 0 | 0 | 0 | 0 | 0 | 0 | 0 | 0 | 0 | 0 | 0 | 0 | 0
6 | O=C(CCNC(=O)c1ccc(OC(F)(F)F)cc1)N[C@@H]1CCCc2ccccc21 [ML390] | 2.9 | 3.6 | 2.2 | 3 | 0 | 2 | 4.2 | 0 | 4.6 | 4.8 | 5.3 | 3.4 | 0.3 | 0.8 | 6
7 | CCCN(CCC)C(=O)C1=Cc2ccc(-c3ccc(C(=O)N4CCCC4)cc3)cc2N=C(N)C1 [Motolimod] | 0 | 0 | 2.5 | 0 | 0 | 0 | 1.6 | 0 | 0 | 0 | 0 | 0.4 | 0.3 | 0 | 0.1
8 | Cc1ccc(C(=O)Nc2cccc(C(F)(F)F)c2)cc1Nc1nc(-c2cccnc2)nc2c1cnn2C [NVP-BHG712] | 0 | 4.7 | 4.8 | 3 | 3 | 4.6 | 3.3 | 3.3 | 5.2 | 3.4 | 6.2 | 1.6 | 7.3 | 7.9 | 0
9 | CN1C(=O)N[C@H](Cc2c[nH]c3c(Cl)cccc23)C1=O [Necrostatin 2] | 0 | 0 | 2.5 | 0 | 0 | 0.7 | 0 | 0 | 0 | 0 | 0 | 0 | 0 | 0 | 0.3
10 | O=c1ncn2nc(Sc3ccc(F)cc3F)ccc2c1-c1c(Cl)cccc1Cl [Neflamapimod] | 0 | 1 | 1.1 | 0 | 1.1 | 0 | 0 | 0 | 0 | 0 | 0 | 0.1 | 0.3 | 0.05 | 0
11 | CC(O)c1cc(C(=O)N[C@@H](C)Cn2ccc(-c3ccc(C#N)c(Cl)c3)n2)n[nH]1 (stereo not given in full) [ODM-201] | 0 | 0 | 0 | 0 | 0.9 | 0 | 0 | 0 | 0.4 | 0 | 0 | 0 | 0.7 | 0 | 0.5
12 | C=CC(=O)Nc1cccc(Oc2nc(Nc3ccc(N4CCN(C)CC4)cc3)nc3ccsc23)c1 [Olmutinib] | 0.05 | 0.4 | 1.7 | 2.1 | 3.5 | 2.6 | 2.3 | 0 | 0.8 | 0 | 2.3 | 2.4 | 0.2 | 0 | 1.5
